Data as given in publication PMC11345841, “Exploring 2-Sulfonylpyrimidine Warheads as Acrylamide Surrogates for Targeted Covalent Inhibition: A BTK Story” (Journal of Medicinal Chemistry, 2024).
Read-outs that look alike come from different tables or passages of the source.

Key:
[1] = target: T1, ABL1(H396P)-nonphosphorylated (Homo sapiens, UniProt P00519, H396P); assay: KINOMEscan ScanTK; assay type: binding
T1 construct: purchased Eurofins DiscoverX KINOMEscan (scanTK)

[2] = system: full-length wild-type BTK; assay: Intact protein mass spectrometry, covalent modification; assay type: binding; conditions: 2:1 ratio of compound to protein (40 μM/20 μM), 23 °C
Procedure: The proteins were injected into the sample loop and desalted for 3 min at 100 μL/min using water (0.1% formic acid) on an in-house packed POROS 20R-2 trap. Proteins were eluted into the mass spectrometer using a 15–70% ACN (0.1% formic acid) gradient in 10 min at a flow rate of 100 μL/min. Mass spectra were acquired using a Waters Synapt HDMSE mass spectrometer operated in TOF-only mode with a standard electrospray source, capillary voltage of 3200 V, and a cone voltage of 40 V with a mass range of 50–2000 m/z. Intact mass values for both free and labeled wild-type BTK were calculated from the raw m/z spectra using MaxEnt1 within MassLynx 4.1 (Waters) with a resolution of 0.05 Da and an output mass range of 65,000–85 000 Da.

[3] = target: T2, EPHB1 (Homo sapiens, UniProt P54762); assay: KINOMEscan ScanTK; assay type: binding
T2 construct: purchased Eurofins DiscoverX KINOMEscan (scanTK)
T2 sequence (P54762 18-984): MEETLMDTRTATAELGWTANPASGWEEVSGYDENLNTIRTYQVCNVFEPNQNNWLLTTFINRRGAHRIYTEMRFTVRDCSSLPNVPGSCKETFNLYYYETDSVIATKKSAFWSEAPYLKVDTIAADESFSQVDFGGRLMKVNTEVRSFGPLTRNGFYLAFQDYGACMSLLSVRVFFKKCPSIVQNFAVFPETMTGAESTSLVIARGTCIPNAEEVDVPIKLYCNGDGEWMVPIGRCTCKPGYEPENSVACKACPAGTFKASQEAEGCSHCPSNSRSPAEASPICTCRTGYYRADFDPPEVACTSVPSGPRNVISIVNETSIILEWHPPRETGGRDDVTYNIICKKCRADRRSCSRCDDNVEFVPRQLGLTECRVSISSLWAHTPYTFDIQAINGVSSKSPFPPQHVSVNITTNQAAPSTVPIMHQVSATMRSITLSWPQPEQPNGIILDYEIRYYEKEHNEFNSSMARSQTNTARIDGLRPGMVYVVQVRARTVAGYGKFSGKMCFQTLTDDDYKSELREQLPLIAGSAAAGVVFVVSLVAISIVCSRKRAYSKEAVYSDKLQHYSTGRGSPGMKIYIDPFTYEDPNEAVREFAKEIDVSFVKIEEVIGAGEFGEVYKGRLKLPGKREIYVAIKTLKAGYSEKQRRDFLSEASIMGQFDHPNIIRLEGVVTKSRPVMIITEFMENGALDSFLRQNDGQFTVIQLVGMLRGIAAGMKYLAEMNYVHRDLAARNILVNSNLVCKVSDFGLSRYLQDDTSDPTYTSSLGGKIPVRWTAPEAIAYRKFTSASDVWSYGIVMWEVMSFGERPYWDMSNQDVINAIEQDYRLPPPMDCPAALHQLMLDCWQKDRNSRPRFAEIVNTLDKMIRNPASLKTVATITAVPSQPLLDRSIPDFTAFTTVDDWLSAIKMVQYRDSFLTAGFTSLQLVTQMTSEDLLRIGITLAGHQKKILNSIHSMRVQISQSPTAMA

[4] = target: T3, ALK(C1156Y) (Homo sapiens, UniProt Q9UM73, C1156Y); assay: KINOMEscan ScanTK; assay type: binding
T3 construct: purchased Eurofins DiscoverX KINOMEscan (scanTK)

[5] = target: T4, ZAP70 (Homo sapiens, UniProt P43403); assay: KINOMEscan ScanTK; assay type: binding
T4 construct: purchased Eurofins DiscoverX KINOMEscan (scanTK)
T4 sequence (P43403 1-619): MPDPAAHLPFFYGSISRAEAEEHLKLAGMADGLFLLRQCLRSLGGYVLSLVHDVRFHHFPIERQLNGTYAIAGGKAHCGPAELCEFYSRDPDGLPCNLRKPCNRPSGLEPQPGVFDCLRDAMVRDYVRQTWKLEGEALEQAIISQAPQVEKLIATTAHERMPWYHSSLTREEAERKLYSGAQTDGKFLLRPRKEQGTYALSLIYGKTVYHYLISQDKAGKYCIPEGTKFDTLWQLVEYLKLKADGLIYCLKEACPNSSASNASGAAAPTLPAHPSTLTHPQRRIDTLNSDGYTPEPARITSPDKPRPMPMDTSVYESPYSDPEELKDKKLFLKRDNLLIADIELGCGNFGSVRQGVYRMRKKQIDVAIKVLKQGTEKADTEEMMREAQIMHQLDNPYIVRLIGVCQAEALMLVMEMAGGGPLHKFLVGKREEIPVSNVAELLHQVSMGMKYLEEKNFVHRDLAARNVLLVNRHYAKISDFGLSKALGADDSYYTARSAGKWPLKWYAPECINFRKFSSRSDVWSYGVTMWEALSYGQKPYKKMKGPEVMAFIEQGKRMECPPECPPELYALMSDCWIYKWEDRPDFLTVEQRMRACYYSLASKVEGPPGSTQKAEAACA

[6] = system: OCI-LY7 cells; assay: Anti-IgM-induced Ca2+ flux assay; assay type: cell-based, human; conditions: 1 h pretreatment, 1000 nM or lower concentrations
Procedure: The effects of compounds on Ca^2+ release were then analyzed following treatment of OCI-LY7 cells (derived from a diffuse large B-cell lymphoma (DLBCL)) with anti-IgM to cross-link surface IgM (sIgM). […] For 8a and 8d, we performed similar experiments at lower concentrations.
Flow cytometry was performed using a FACS Canto II system (BD Biosciences). Data was acquired for 30 s before cells were stimulated with goat antihuman F(ab’)2 anti-IgM and data were acquired for a further 3.5 min. Cells were then treated with ionomycin (1 μM; Merck) and data were acquired for 2 min. Calcium responses were quantified by calculating area under the curve (AUC) in FlowJo (Becton Dickinson) from the point of addition of anti-IgM to the addition of ionomycin.

[7] = Electrophilic reactivity assessment (GSH assay); conditions: for stability/reactivity with 10-fold excess of GSH in PBS: up to 6 h at 20 °C, LC-MS
Procedure: Final volume: 1200 μL; final composition: 100 μM compound, 100 μM standard, 1 mM GSH, 5% v/v DMSO. The resulting mixture was kept at 20 °C. Reaction monitoring and rate determination: LC-MS traces of the mixture were acquired every 10 min. Normalized integrations of the starting material and/or product were plotted as a function of time (s), using the 4-hydroxybenzoic acid peak as standard for integral calibration/normalization, allowing extraction of pseudo-first-order reaction rate constants (k’). All measurements were performed in triplicate.

[8] = Plasma stability assay; assay type: in vitro ADME; conditions: 3 h incubation at 37 °C; 50% human plasma; 1 μM compound
[9] = @1000nM, EPHB1, read-out: %Control
[10] = EPHB1, read-out: %Control @1000nM

T3 sequence (Q9UM73 19-1620 C1156Y): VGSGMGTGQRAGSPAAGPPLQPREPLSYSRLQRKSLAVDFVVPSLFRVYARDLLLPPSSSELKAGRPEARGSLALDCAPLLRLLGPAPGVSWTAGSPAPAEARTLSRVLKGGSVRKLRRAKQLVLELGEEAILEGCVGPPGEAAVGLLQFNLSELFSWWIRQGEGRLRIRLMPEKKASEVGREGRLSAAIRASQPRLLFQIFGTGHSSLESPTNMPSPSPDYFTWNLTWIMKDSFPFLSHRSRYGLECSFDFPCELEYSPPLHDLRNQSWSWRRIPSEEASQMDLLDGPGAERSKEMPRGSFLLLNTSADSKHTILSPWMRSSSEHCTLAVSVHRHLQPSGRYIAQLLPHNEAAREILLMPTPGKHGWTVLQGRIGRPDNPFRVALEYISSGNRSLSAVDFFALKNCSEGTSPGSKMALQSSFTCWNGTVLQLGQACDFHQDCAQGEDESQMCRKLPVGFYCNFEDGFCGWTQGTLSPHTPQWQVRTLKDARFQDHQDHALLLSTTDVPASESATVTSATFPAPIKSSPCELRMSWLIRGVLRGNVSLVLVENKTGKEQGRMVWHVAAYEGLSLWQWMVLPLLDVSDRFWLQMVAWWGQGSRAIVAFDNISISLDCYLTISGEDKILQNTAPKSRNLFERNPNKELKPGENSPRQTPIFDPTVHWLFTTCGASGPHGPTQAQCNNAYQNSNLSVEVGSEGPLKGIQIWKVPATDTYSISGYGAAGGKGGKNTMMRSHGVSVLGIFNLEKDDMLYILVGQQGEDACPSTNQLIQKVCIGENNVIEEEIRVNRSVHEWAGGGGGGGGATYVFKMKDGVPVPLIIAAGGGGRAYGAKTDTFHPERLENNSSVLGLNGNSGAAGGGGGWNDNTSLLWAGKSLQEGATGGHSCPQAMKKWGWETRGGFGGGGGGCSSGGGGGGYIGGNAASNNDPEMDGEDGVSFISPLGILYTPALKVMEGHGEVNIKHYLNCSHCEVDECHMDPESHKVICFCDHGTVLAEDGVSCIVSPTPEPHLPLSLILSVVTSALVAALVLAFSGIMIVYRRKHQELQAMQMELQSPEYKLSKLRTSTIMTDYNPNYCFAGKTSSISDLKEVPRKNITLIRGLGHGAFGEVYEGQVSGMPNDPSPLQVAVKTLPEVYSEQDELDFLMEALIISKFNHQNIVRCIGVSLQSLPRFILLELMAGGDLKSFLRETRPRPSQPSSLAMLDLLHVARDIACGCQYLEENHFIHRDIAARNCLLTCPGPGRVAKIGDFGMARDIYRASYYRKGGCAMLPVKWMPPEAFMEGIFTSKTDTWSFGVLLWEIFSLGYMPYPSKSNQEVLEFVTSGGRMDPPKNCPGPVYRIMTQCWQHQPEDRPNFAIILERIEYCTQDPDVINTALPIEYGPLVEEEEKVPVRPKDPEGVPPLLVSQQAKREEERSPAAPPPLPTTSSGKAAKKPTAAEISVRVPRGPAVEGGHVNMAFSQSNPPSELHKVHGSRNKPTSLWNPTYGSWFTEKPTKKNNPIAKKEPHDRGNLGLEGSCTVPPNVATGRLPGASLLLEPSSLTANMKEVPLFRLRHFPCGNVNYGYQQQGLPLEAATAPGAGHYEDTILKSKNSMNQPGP

Structure (SMILES)	remaining binding at 1 µM ([1]; @1000nM, read-out: %Control) [%]	remaining binding at 1 µM ([1]; read-out: %Control @1000nM) [%]	covalent modification of full-length WT BTK (intact mass) [2]	remaining binding at 1 µM ([3]; read-out: %Control) [%]	remaining binding at 1 µM ([3]; read-out: %Control @1000nM) [%]	remaining binding at 1 µM ([4]; @1000nM, read-out: %Control) [%]	remaining binding at 1 µM ([4]; read-out: %Control @1000nM) [%]	remaining binding at 1 µM ([5]; @1000nM, read-out: %Control) [%]	remaining binding at 1 µM ([5]; read-out: %Control @1000nM) [%]	difference in %Control versus compound Ib at 1 µM ([1]; @1000nM) [%]	effect on anti-IgM-induced Ca2+ flux [6]	difference in % of control versus compound Ib at 1 µM ([3]; @1000nM, EPHB1) [%]	remaining binding at 1 µM [3, 9] [%]	remaining binding at 1 µM [3, 10] [%]	difference in %Control versus compound Ib at 1 µM ([4]; @1000nM) [%]	stability/reactivity with 10-fold excess of GSH in PBS [7]	% compound remaining, human plasma stability [8]	pseudo-first-order rate constant kGSH/PBS ([7]; 100 μM compound, 1 mM GSH, PBS pH 7.4, 20 °C, triplicate)
C=CC(=O)N1CCC[C@@H](n2nc(-c3ccc(Oc4ccccc4)cc3)c3c(N)ncnc32)C1 [Compound 1g, Ibrutinib, reference compound]	14	14	modified full-length BTK	90	90	98	98	–	–	–	–	–	–	–	–	–	–	–
Cc1cnc(S(C)(=O)=O)nc1N1CCCC(n2nc(-c3ccc(Oc4ccccc4)cc3)c3c(N)ncnc32)C1 (centres unmarked) [Compound 8a, 1-(1-(5-Methyl-2-(methylsulfonyl)pyrimidin-4-yl)piperidin-3-yl)-3-(4-phenoxyphenyl)-1H-pyrazolo[3,4-d]pyrimidin-4-amine]	61	61	–	–	–	85	85	92	92	47	maintained for these compounds at concentrations down to 250 nM	3	93	93	-13	fully stable	–	–
COC(=O)c1cnc(S(C)(=O)=O)nc1N1CCCC(n2nc(-c3ccc(Oc4ccccc4)cc3)c3c(N)ncnc32)C1 (centres unmarked) [Compound 8b, Methyl 4-(3-(4-Amino-3-(4-phenoxyphenyl)-1H-pyrazolo[3,4-d]pyrimidin-1-yl)piperidin-1-yl)-2-(methylsulfonyl)pyrimidine-5-carboxylate]	69	69	–	–	–	90	90	94	94	55	–	-2	88	88	-8	–	20–50%	–
CCOC(=O)c1cnc(S(C)(=O)=O)nc1N1CCC[C@@H](n2nc(-c3ccc(Oc4ccccc4)cc3)c3c(N)ncnc32)C1 [Compound 8c, Ethyl (R)-4-(3-(4-Amino-3-(4-phenoxyphenyl)-1H-pyrazolo[3,4-d]pyrimidin-1-yl)piperidin-1-yl)-2-(methylsulfonyl)pyrimidine-5-carboxylate]	55	55	–	–	–	90	90	100	100	41	–	1	91	91	-8	–	20–50%	–
CNC(=O)c1cnc(S(C)(=O)=O)nc1N1CCCC(n2nc(-c3ccc(Oc4ccccc4)cc3)c3c(N)ncnc32)C1 (centres unmarked) [Compound 8d, 4-(3-(4-Amino-3-(4-phenoxyphenyl)-1H-pyrazolo[3,4-d]pyrimidin-1-yl)piperidin-1-yl)-N-methyl-2-(methylsulfonyl)pyrimidine-5-carboxamide]	42	42	clean and quantitative modification in under an hour	–	–	88	88	100	100	28	maintained for these compounds at concentrations down to 250 nM	1	91	91	-10	mild reactivity	–	47 × 10^–5 ± 0.5 × 10^–5 s^–1
